Values joined by “and” are separate entries in the source; they are usually repeats but may differ in a detail not shown here. Equal values may be shown once. These antisense oligonucleotides have a phosphorothioate backbone; sugars and methylation of C are not fully specified.

Consider 85 sequences from the OligoGym collection.
Note: test concentration or dose not given here.

In the first data set the target is PIK3CD. To be noted: ASO.
Take CGGCTGCTCCAGGGACCACA: the remaining target (mRNA or protein) (fraction of control) was 0.63 and 0.38.
On to GCCACTACTGCCTGTTGTCT, for which the remaining target (mRNA or protein) (fraction of control) was 0.59 and 0.3.
Same read-out and setting: the figure for CTGGGAGGAGCCACTACTGC is 0.99 and 0.6.
Turning to GGAGCCACTACTGCCTGTTG, the remaining target (mRNA or protein) (fraction of control) was 0.86 and 0.31.
For CTGCGTTGTTACTTCCCAGA, the remaining target (mRNA or protein) (fraction of control) was ≥ 1 and 0.41.
With CCAGGGCTGGGAGGAGCCAC, the remaining target (mRNA or protein) (fraction of control) was 0.91 and 0.69.
The same measure, in the same setting: the same measure for GGACGGGCAGGAAGGGCTGC: ≥ 1 and 0.87.
With AGACCCCTGTGGGCAGCAGG, the remaining target (mRNA or protein) (fraction of control) is 0.78 and 0.46.
Consider ACTACTGCCTGTTGTCTTTG, for which the remaining target (mRNA or protein) (fraction of control) is ≥ 1 and 0.44.
The same measure, in the same setting: the figure for CCTCGGGAGGAGAACAGTCT is ≥ 1 and 0.45.
The sequence GGGGCATCCTGCGTTGTTAC gave a remaining target (mRNA or protein) (fraction of control) of at least 1.
On the same count and under the same terms, the same measure for ACCCACTTGAAAAGTGGAGA: 0.99 and 0.8; for GGCAGTCCACCCCAGGGGGC: 0.76 and 0.56; for GCATCCTGCGTTGTTACTTC: 0.89 and 0.35.
Same read-out and setting: the figure for CCTCCTCTTGGGCCCAGGGC is ≥ 1 and 0.71; for GATGACAGTTGTCCTCTCTG it is 0.84 and 0.46; for ACCAATGTGCTTGGTCCCCA it is ≥ 1 and 0.37.
Take AGTAGGCACCAGGTGACCGC: the remaining target (mRNA or protein) (fraction of control) is 0.77 and 0.67.

For the next data set, the target named is SMAD1. To be noted: ASO.
On to TTGTTTAAATTTCTGAAT, for which the remaining target (mRNA or protein) (fraction of control) was determined as 0.5.
The same measure, in the same setting: the figure for AGTGAGGAAACGGGTGGC is 0.28.
Still for that read-out and setting: the same measure for TTCACCAAAGCATCAACA: 0.18; for CAGCCTGCCATCCAGAGA: 0.46; for AAAGATGAACTCCTTTTC: 0.65.
For the sequence CATAAGCAACCGCCTGAA, the remaining target (mRNA or protein) (fraction of control) worked out at 0.57.
ATTGATCTGGTCGCGCTG displayed a remaining target (mRNA or protein) (fraction of control) of 0.69.
The same measure, in the same setting: the figure for GCAGCTCAAGGCCTTTTC is 0.58; for AAATGACATGAGGCAGTC it is 0.54.
Still for that read-out and setting: the same measure for TGGATATGGTGAAATAAA: 0.83.
CCTCCACTCCTCAGCTGC had a remaining target (mRNA or protein) (fraction of control) of 0.5.
The same measure, in the same setting: the figure for TGCTACTGTCACTAAGGC is 0.12; for CTGAAGATCGGGCCAGCG it is 0.52.
Same read-out and setting: the figure for TGACTCATCCATCCTTCA is 0.19; for ACATTCATAATGACAGCA it is 0.59.
On the same count and under the same terms, the same measure for TGCTAGTAACATCCTGGC: 0.25; for CCGCCCGCCTGCTTTCTC: 0.12.
The sequence GTAGGTGCTGCTGCTGCT gave a remaining target (mRNA or protein) (fraction of control) of 0.49.
TCCTTCTGCTTGGAACCA came in with a remaining target (mRNA or protein) (fraction of control) of 0.3.
On the same count and under the same terms, the same measure for ATGCAAAAGGACAGCAGA: 0.57.
Still for that read-out and setting: the figure for AGCATTCCAGTGGTTTTA is 0.31.
Same read-out and setting: the same measure for TTTACAGAGAAGTCTCTT: at least 1; for GAGCCGCTCGGCCTCTCC: 0.23; for GCTGGACTTGTAAAGGAA: 0.57.
Consider AAGGGCTTCCTGGGTCTG, for which the remaining target (mRNA or protein) (fraction of control) worked out at 0.53.
Still for that read-out and setting: the figure for TCGCCCTGTTTCCACCCA is 0.1.
Sequence TTGGTCACAGAGGTCAAG displayed a remaining target (mRNA or protein) (fraction of control) of 0.15.
Same read-out and setting: the figure for AGTGGCGTTGAGTGGCAT is 0.75.

For another data set, the target named is SMAD3. The following applies: ASO.
With GGGAAGTTAGTGTTTTCG, the remaining target (mRNA or protein) (fraction of control) is at least 1.
CCTCCCCATCCCAAGTCT gave a remaining target (mRNA or protein) (fraction of control) of 0.59.
On the same count and under the same terms, the figure for GGCTGTAGTCGTCCAGTG is 0.65; for CTCTCTGGTAGTGGTAGG it is 0.8.
GGTAGGGATTCACGCAGA showed a remaining target (mRNA or protein) (fraction of control) of 0.92.
On the same count and under the same terms, the figure for GAACTCCTGGTTGTTGAA is at least 1.
On the same count and under the same terms, the same measure for GCCTTCTCGCACCATTTC: 0.92.
Still for that read-out and setting: the figure for TGGGTTGAGTAGAGTTCC is 0.53.
Sequence TTAAGCCACCAGAGCAGA came in with a remaining target (mRNA or protein) (fraction of control) of at least 1.
Same read-out and setting: the same measure for CCCCTCCGATGTAGTAGA: 0.54.
As to GCGTGGCACCAACACAGG, the remaining target (mRNA or protein) (fraction of control) is at least 1.
In turn, TCTTCTTCCTTGACAACA displayed a remaining target (mRNA or protein) (fraction of control) of 0.92.
The same measure, in the same setting: the figure for GCGAGGCGTGGAATGTCT is 0.54; for GAGGCACTCTGCGAAGAC it is 0.49.
Same read-out and setting: the figure for CTTCCGATGTGTCTCCGT is 0.39; for TCTTGAGTTTCTTGACCA it is at least 1.
GAACACGCACCTCCCAAT: the remaining target (mRNA or protein) (fraction of control) is 0.4.
On the same count and under the same terms, the figure for CCATTTCTCCTCCTGCCC is 0.62; for CTCCCCAGCCTTTGACGA it is 0.54.
TCTGGTGGTCACTGGTTT: the remaining target (mRNA or protein) (fraction of control) was determined as 0.64.
Still for that read-out and setting: the figure for ACAGGCGGCAGTAGATGA is at least 1; for TTCTTCCAGCCCAGCAGG it is at least 1; for GTGCGGGCGGCGAGGAGC it is 0.86.
Consider GCCCTGGTTGACCGACTG, for which the remaining target (mRNA or protein) (fraction of control) is 0.83.
Same read-out and setting: the same measure for GGAGGGCGTGCGGGCGGC: at least 1.
The same measure, in the same setting: the same measure for AGACCAAATGCCATCCCA: 0.18; for CCAAGTTATTATGTGCTG: at least 1.
Same read-out and setting: the figure for GCGCTGGTTACAGTTGGG is at least 1; for ACATTCGGGTCAACTGGT it is 0.48.
TGCCCGTTCTGCTCGCCC returned a remaining target (mRNA or protein) (fraction of control) of 0.63.
Turning to CCTGTTGACATTGGAGAG, the remaining target (mRNA or protein) (fraction of control) was 0.72.
GGGTCGGTGAAGCCATCC gave a remaining target (mRNA or protein) (fraction of control) of at least 1.
Turning to AGAACTGGTGTCTCTACT, the remaining target (mRNA or protein) (fraction of control) worked out at 0.51.
As to CGATGTAGTAGAGCCGCA, the remaining target (mRNA or protein) (fraction of control) came out at 0.42.
In turn, CCCCTACCATACTTGATG registered a remaining target (mRNA or protein) (fraction of control) of 0.38.
The same measure, in the same setting: the same measure for CTCTGGGTTTGCTCGTGT: 0.56; for TGCTCGCCCTTCTTCCAG: 0.61.
In turn, TGCATCGTGCGGGCTCTT yielded a remaining target (mRNA or protein) (fraction of control) of 0.43.
On the same count and under the same terms, the figure for TGCAGGTCCAAGTTATTA is 0.81.
